Assay results reported in US12240840B2, “Amide-substituted heterocyclic compounds for the treatment of conditions related to the modulation of IL-12, IL-23 and/or IFN-alpha” (BRISTOL-MYERS SQUIBB COMPANY, priority 2018, dated 2025).

The compounds below were run on IFNα-induced pSTAT5 (pY694) in CD3 positive cells of human whole blood (assay: IFNα-Induced STAT Phosphorylation in Human Whole Blood). Settings: Homo sapiens, 1 h compound incubation, 1000 U/mL recombinant human IFNα A/D for 15 min, pSTAT5 in CD3 positive population, read-out: Human WB IFNα-Induced Stat Phosph. (IC50).
Type: cell-based
Outline: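 Read-out is median fluorescence intensity of pSTAT5 (pY694) in the CD3-positive gate, by flow cytometry after fix/lyse and permeabilization. Before that, whole human blood anticoagulated with EDTA or ACD-A received compound for an hour and 1000 U/mL IFNα A/D for 15 min.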

Q: With `[2H]C([2H])([2H])NC(=O)c1nnc(NC(=O)C2CC2)cc1Nc1cccc(-c2ncc(CNS(C)(=O)=O)s2)c1OC` [Example 265] as the compound, how does the IC50 read?
A: 0.53 µM

Q: How did the IC50 turn out when `[2H]C([2H])([2H])NC(=O)c1nnc(NC(=O)C2CC2)cc1Nc1cccc(-c2ncc(CNC(=O)OC)s2)c1OC` [Example 266] was run?
A: 2.53 µM

Q: `[2H]C([2H])([2H])NC(=O)c1nnc(NC(=O)C2CC2)cc1Nc1cccc(-c2ncc(C(C)(C)O)s2)c1OC` [Example 267] was tested. Which IC50 did it give?
A: 0.15 µM

Q: Which IC50 does the source give for `[2H]C([2H])([2H])NC(=O)c1nnc(NC(=O)C2CC2)cc1Nc1cccc(-c2ncc(C(=O)N3CCOCC3)s2)c1OC` [Example 268] here?
A: 0.1 µM

Q: How did the IC50 turn out when `[2H]C([2H])([2H])NC(=O)c1nnc(NC(=O)C2CC2)cc1Nc1cccc(-c2ncc(C(=O)N3CCN(CCO)CC3)s2)c1OC` [Example 269] was run?
A: 0.04 µM

Q: With `[2H]C([2H])([2H])NC(=O)c1cnc(NC(=O)C2CC2)cc1Nc1cccc(-c2ncc(C(C)(C)O)s2)c1OC` [Example 270] as the compound, how does the IC50 read?
A: 0.1 µM

Q: For `[2H]C([2H])([2H])NC(=O)c1nnc(NC(=O)C2CC2)cc1Nc1cccc(-c2ncc(C(=O)NCCOC)s2)c1OC` [Example 271], which IC50 is on record?
A: 0.09 µM

Q: Which IC50 does the source give for `[2H]C([2H])([2H])NC(=O)c1nnc(NC(=O)C2CC2)cc1Nc1cccc(-c2ncc(C(=O)NCC)s2)c1OC` [Example 272] here?
A: 0.16 µM

Q: With `[2H]C([2H])([2H])NC(=O)c1nnc(NC(=O)C2CC2)cc1Nc1cccc(-c2ncc(C(=O)N3CCS(=O)(=O)CC3)s2)c1OC` [Example 273] as the compound, how does the IC50 read?
A: 0.07 µM

Q: `[2H]C([2H])([2H])NC(=O)c1nnc(NC(=O)C2CC2)cc1Nc1cccc(-c2ncc(C(=O)N3CC4CN(C)CC4C3)s2)c1OC` (centres unmarked) [Example 274] was tested. Which IC50 did it give?
A: 0.05 µM

Q: How did the IC50 turn out when `[2H]C([2H])([2H])NC(=O)c1nnc(NC(=O)C2CC2)cc1Nc1cccc(-c2ncc(C(=O)N3C[C@@H](C)O[C@@H](C)C3)s2)c1OC` [Example 275] was run?
A: 0.15 µM

Q: Which IC50 does the source give for `[2H]C([2H])([2H])NC(=O)c1nnc(NC(=O)C2CC2)cc1Nc1cccc(-c2nc(C(=O)N(C)C)cs2)c1OC` [Example 276] here?
A: 0.69 µM

Q: With `[2H]C([2H])([2H])NC(=O)c1nnc(NC(=O)C2CC2)cc1Nc1cc(F)cc(-c2ncc(C(=O)N(C)C)s2)c1OC` [Example 277] as the compound, how does the IC50 read?
A: 0.24 µM

Q: `[2H]C([2H])([2H])NC(=O)c1nnc(NC(=O)C2CC2)cc1Nc1cccc(-c2ncc(NC(C)=O)s2)c1OC` [Example 279] was tested. Which IC50 did it give?
A: 0.47 µM

Q: For `[2H]C([2H])([2H])NC(=O)c1nnc(NC(=O)C2CC2)cc1Nc1cccc(-c2ncc(NC(=O)OC(C)(C)C)s2)c1OC` [Example 281], which IC50 is on record?
A: > 10 µM

Q: For `[2H]C([2H])([2H])NC(=O)c1nnc(NC(=O)C2CC2)cc1Nc1cccc(-c2ncc(N)s2)c1OC` [Example 282], which IC50 is on record?
A: 0.18 µM

Q: For `[2H]C([2H])([2H])NC(=O)c1nnc(NC(=O)C2CC2)cc1Nc1cccc(-c2ncc(NC(=O)COC)s2)c1OC` [Example 283], which IC50 is on record?
A: 0.36 µM

Q: How did the IC50 turn out when `[2H]C([2H])([2H])NC(=O)c1nnc(NC(=O)C2CC2)cc1Nc1cccc(-c2ncc(NC(=O)CC#N)s2)c1OC` [Example 284] was run?
A: > 10 µM

Q: How did the IC50 turn out when `[2H]C([2H])([2H])NC(=O)c1nnc(NC(=O)C2CC2)cc1Nc1cccc(-c2ncc(C(=O)NCC34CCN(CC3)CC4)s2)c1OC` [Example 287] was run?
A: 1.26 µM

Q: `[2H]C([2H])([2H])NC(=O)c1nnc(NC(=O)C2CC2)cc1Nc1cccc(-c2ncc(C(=O)N3C4CCC3CN(C)C4)s2)c1OC` [Example 288] was tested. Which IC50 did it give?
A: 0.09 µM

Q: Which IC50 does the source give for `[2H]C([2H])([2H])NC(=O)c1nnc(NC(=O)C2CC2)cc1Nc1cccc(-c2ncc(C(=O)NCc3ccccc3)s2)c1OC` [Example 289] here?
A: 0.15 µM

Q: `[2H]C([2H])([2H])NC(=O)c1nnc(NC(=O)C2CC2)cc1Nc1cccc(-c2ncc(C(=O)NCCC(=O)OC)s2)c1OC` [Example 290] was tested. Which IC50 did it give?
A: 0.1 µM

Q: `[2H]C([2H])([2H])NC(=O)c1nnc(NC(=O)C2CC2)cc1Nc1cccc(-c2ncc(C(=O)N(C)CC)s2)c1OC` [Example 291] was tested. Which IC50 did it give?
A: 0.11 µM

Q: With `[2H]C([2H])([2H])NC(=O)c1nnc(NC(=O)C2CC2)cc1Nc1cccc(-c2ncc(C(=O)N(C)C(C)C)s2)c1OC` [Example 292] as the compound, how does the IC50 read?
A: 0.16 µM

Q: Which IC50 does the source give for `[2H]C([2H])([2H])NC(=O)c1nnc(NC(=O)C2CC2)cc1Nc1cccc(-c2ncc(C(=O)NCCCN3CCCC3=O)s2)c1OC` [Example 293] here?
A: 0.03 µM

Q: Which IC50 does the source give for `[2H]C([2H])([2H])NC(=O)c1nnc(NC(=O)C2CC2)cc1Nc1cccc(-c2ncc(C(=O)N3CCCN(C)CC3)s2)c1OC` [Example 294] here?
A: 0.07 µM

Q: `[2H]C([2H])([2H])NC(=O)c1nnc(NC(=O)C2CC2)cc1Nc1cccc(-c2ncc(C(=O)N3CCN(C(C)C)CC3)s2)c1OC` [Example 295] was tested. Which IC50 did it give?
A: 0.06 µM

Q: With `[2H]C([2H])([2H])NC(=O)c1nnc(NC(=O)C2CC2)cc1Nc1cccc(-c2ncc(C(=O)Nc3ccc(OC)cc3)s2)c1OC` [Example 296] as the compound, how does the IC50 read?
A: > 10 µM

Q: `[2H]C([2H])([2H])NC(=O)c1nnc(NC(=O)C2CC2)cc1Nc1cccc(-c2ncc(C(=O)N3CCC(CCO)CC3)s2)c1OC` [Example 297] was tested. Which IC50 did it give?
A: 0.03 µM

Q: How did the IC50 turn out when `[2H]C([2H])([2H])NC(=O)c1nnc(NC(=O)C2CC2)cc1Nc1cccc(-c2ncc(C(=O)N3CCc4ccccc4C3)s2)c1OC` [Example 298] was run?
A: > 10 µM

Q: For `[2H]C([2H])([2H])NC(=O)c1nnc(NC(=O)C2CC2)cc1Nc1cccc(-c2ncc(C(=O)NCCC3CCCN3C)s2)c1OC` (centres unmarked) [Example 299], which IC50 is on record?
A: 0.014 µM

Q: `[2H]C([2H])([2H])NC(=O)c1nnc(NC(=O)C2CC2)cc1Nc1cccc(-c2ncc(C(=O)NCC#N)s2)c1OC` [Example 300] was tested. Which IC50 did it give?
A: 0.33 µM

Q: Which IC50 does the source give for `[2H]C([2H])([2H])NC(=O)c1nnc(NC(=O)C2CC2)cc1Nc1cccc(-c2ncc(C(=O)NCCN3CCCC3)s2)c1OC` [Example 301] here?
A: 0.03 µM

Q: How did the IC50 turn out when `[2H]C([2H])([2H])NC(=O)c1nnc(NC(=O)C2CC2)cc1Nc1cccc(-c2ncc(C(=O)N3CCC[C@H]3CO)s2)c1OC` [Example 302] was run?
A: 0.11 µM

Q: With `[2H]C([2H])([2H])NC(=O)c1nnc(NC(=O)C2CC2)cc1Nc1cccc(-c2ncc(C(=O)NC(C)C)s2)c1OC` [Example 303] as the compound, how does the IC50 read?
A: 0.1 µM

Q: With `[2H]C([2H])([2H])NC(=O)c1nnc(NC(=O)C2CC2)cc1Nc1cccc(-c2ncc(C(=O)NCCNC(C)=O)s2)c1OC` [Example 304] as the compound, how does the IC50 read?
A: 0.13 µM

Q: For `[2H]C([2H])([2H])NC(=O)c1nnc(NC(=O)C2CC2)cc1Nc1cccc(-c2ncc(C(=O)NCCC(C)C)s2)c1OC` [Example 305], which IC50 is on record?
A: 0.22 µM

Q: `[2H]C([2H])([2H])NC(=O)c1nnc(NC(=O)C2CC2)cc1Nc1cccc(-c2ncc(C(=O)NC3CCC(O)CC3)s2)c1OC` (centres unmarked) [Example 306] was tested. Which IC50 did it give?
A: 0.44 µM

Q: `[2H]C([2H])([2H])NC(=O)c1nnc(NC(=O)C2CC2)cc1Nc1cccc(-c2ncc(C(=O)NC3CCC(N(C)C)CC3)s2)c1OC` (centres unmarked) [Example 307] was tested. Which IC50 did it give?
A: 0.03 µM

Q: How did the IC50 turn out when `[2H]C([2H])([2H])NC(=O)c1nnc(NC(=O)C2CC2)cc1Nc1cccc(-c2ncc(C(=O)NC(C)(C)C)s2)c1OC` [Example 309] was run?
A: > 10 µM

Q: `[2H]C([2H])([2H])NC(=O)c1nnc(NC(=O)C2CC2)cc1Nc1cccc(-c2ncc(C(=O)NCC(C)C)s2)c1OC` [Example 310] was tested. Which IC50 did it give?
A: > 10 µM

Q: How did the IC50 turn out when `[2H]C([2H])([2H])NC(=O)c1nnc(NC(=O)C2CC2)cc1Nc1cccc(-c2ncc(C(=O)NCCC(N)=O)s2)c1OC` [Example 311] was run?
A: 0.2 µM

Q: For `[2H]C([2H])([2H])NC(=O)c1nnc(NC(=O)C2CC2)cc1Nc1cccc(-c2ncc(C(=O)N3CCNC(=O)C3)s2)c1OC` [Example 312], which IC50 is on record?
A: 0.07 µM

Q: `[2H]C([2H])([2H])NC(=O)c1nnc(NC(=O)C2CC2)cc1Nc1cccc(-c2ncc(C(=O)N3CCC3)s2)c1OC` [Example 313] was tested. Which IC50 did it give?
A: 0.07 µM
